In brackets after ≈: the same amount, converted by molar mass.
What was measured:
[1] = system: Mouse mammary cancer SC-4; assay: Anti-tumor activity against mouse mammary cancer SC-4 in BALB/c nu/nu nude mice; type: in vivo; settings: once a day, five days after start
Protocol: Mouse mammary cancer SC-4 (8 mm^3) was subcutaneously implanted into BALB/c nu/nu nude mice (5-weeks-old, male) at ventral side using a trockar.
After the volume of the tumor reached 100-300 mm^3, UCA1064-B was subcutaneously administered near the tumor at a dose of 15 mg/kg once a day for 4 days. UCA1064-B was administered in the form of a suspension, which was prepared by triturating 10 mg of UCA1064-B with 20 μl of Tween 80 and then suspending the compound in 0.3% carboxymethyl cellulose (CMC).
For comparison, 100 mg/kg of cortisone was subcutaneously administered once a day for 5 days in a similar manner.
Five days after the start of administration, the anti-tumor activity was determined as T/C (T: the volume of the tumor of the test group, C: the volume of the tumor of the control group).

[2] = system: Bacillus subtilis No. 10707; assay: Antibacterial and antifungal activity, agar dilution method; type: cell-based; settings: pH 7, read-out: Minimum Inhibitory Concentration (MIC)
Protocol: (§1) The minimum inhibitory concentration (MIC) of UCA1064-B against various bacteria and fungi was determined by the agar dilution method using a medium (pH 7) prepared by dissolving 3 g of Bacto-Tryptone (Difco Laboratories), 3 g of meat extract, 1 g of yeast extract, 1 g of glucose and 16 g of agar in 1 liter of water.

Candida krusei MTU12041 = assay: as above; type: cell-based; settings: Pichia kudriavzevii, pH 7, read-out: Minimum Inhibitory Concentration (MIC)
Protocol: as §1

[3] = system: Enterococcus faecium ATCC10541; assay: as above; type: cell-based; settings: pH 7, read-out: Minimum Inhibitory Concentration (MIC)
Protocol: as §1

[4] = system: Klebsiella pneumoniae ATCC10031; assay: as above; type: cell-based; settings: pH 7, read-out: Minimum Inhibitory Concentration (MIC)
Protocol: as §1

[5] = system: Saccharomyces cerevisiae MTU09001; assay: as above; type: cell-based; settings: pH 7, read-out: Minimum Inhibitory Concentration (MIC)
Protocol: as §1

[6] = system: Salmonella typhi ATCC9992; assay: as above; type: cell-based; settings: Salmonella enterica, pH 7, read-out: Minimum Inhibitory Concentration (MIC)
Protocol: as §1

[7] = system: Staphylococcus aureus ATCC6538P; assay: as above; type: cell-based; settings: pH 7, read-out: Minimum Inhibitory Concentration (MIC)
Protocol: as §1

BALB 3T3/H-ras cells = assay: Growth inhibition against BALB 3T3 cells transformed by the oncogene H-ras (Giemsa staining); type: cell-based
Protocol: (B) Growth Inhibition Against BALB 3T3 Cells Transformed by the Oncogene H-Ras (Hereinafter Referred to as BALB 3T3/H-Ras Cells)
A BALB 3T3/H-ras cell suspension (3×10^4 cells/ml) prepared by suspending BALB 3T3/H-ras cells in a medium comprising DME medium (Nissui Pharmaceutical Co, Ltd.) and 10% fetal calf serum (hereinafter referred to as Medium A) was put into wells of a 96-well microtiter plate in an amount of 0.1 ml per well. After the plate was incubated at 37° C. for 20 hours in a CO2 -incubator, 0.1 ml of a sample of UCA1064-B appropriately diluted with Medium A was added to each well. The cells were further incubated at 37° C. for 72 hours in the CO2 -incubator. After the culture supernatant was removed, the residue was washed once with physiological saline and then treated with 0.1 ml of methanol for 10 minutes to fix the cells. […] After the staining solution was removed, the residue was washed once with 0.2 ml of water. Then, the dye was extracted with 0.2 ml of 0.1N hydrochloric acid and absorbance was measured at 620 nm with a microplate reader.

Solubility = type: physicochemical

C[C@]12CCC(=O)C=C1CC[C@@H]1[C@@H]2C(=O)C[C@@]2(C)[C@H]1CC[C@]2(O)C(=O)CO [Cortisone, reference compound]
T/C (tumor volume of test group / control group) ([1]; 100 mg/kg × 5, subcutaneous, **P < 0.05 (Mann-Whitney U test)): 0.39

CC(C)C(C)CCC(C)C1CCN=C2C3=C(CCC21C)C1(C)CCC(O)CC1CC3 (stereo not shown) [UCA1064-B]
MIC [2]: 20 µg/mL (≈ 48.3 µM)
MIC (Candida krusei MTU12041): 0.78 µg/mL (≈ 1.89 µM)
MIC [3]: 40 µg/mL (≈ 96.7 µM)
MIC [4]: > 100 µg/mL
MIC [5]: 0.39 µg/mL (≈ 0.943 µM)
MIC [6]: > 100 µg/mL
MIC [7]: 20 µg/mL (≈ 48.3 µM)
IC50 (BALB 3T3/H-ras cells; Mus musculus, BALB/3T3, 72 hours, 37° C.): 3.5 µg/mL (≈ 8.46 µM)
growth of cancer cells (conclusion in words) (BALB 3T3/H-ras cells; summary of the results shown (Tables 2 and 3)): inhibits the growth of cancer cells
T/C (tumor volume of test group / control group) ([1]; 15 mg/kg × 4, subcutaneous near the tumor, *P < 0.01 (Mann-Whitney U test)): 0.49
Solubility (Solubility; alcohol, acetone, ethyl acetate and chloroform): soluble in alcohol, acetone, ethyl acetate and chloroform
Solubility (Solubility; water and hexane): insoluble in water and hexane

— patent US5236929A, “Compound UCA1064-B” (Kyowa Hakko Kogyo Co., Ltd., priority 1991, dated 1993)
